Assay results taken from patent US11419945B2, “Antigen binding proteins” (Glaxo Group Limited, priority 2011, dated 2022).

What was measured:
OPM-2 = experiment: ADCC of afucosylated J6M0, OPM-2; format: cell-based, human; conditions: OPM-2, ADCC, PBMC E:T 50:1, 18 hours; one value per assay/donor (A-K)
Experimental: (§1) FIG. 18: ADCC dose response curves of CA8 J6M0 Potelligent against a panel of 5 multiple myeloma lines—Human PBMC were incubated with multiple myeloma target cells in the presence of varying concentrations of CA8 J6M0 potelligent antibody at an E:T ratio of 50:1 for 18 hours. The percentage of target cells remaining in the effector plus target mixture was then measured by FACS using a fluorescently labelled anti-CD138 antibody to detect the target cells and the percent cytotoxicity calculated. Example dose response curves for CA8 J6M0 potelligent against the five multiple myeloma cell lines tested—[…], RPMI8226, JJN-3, OPM-2, and U266. Each data point is from a singlicate value.
(§2) Human PBMC were incubated with multiple myeloma target cells at an E:T ratio of 50:1 in presence of varying concentrations of afucosylated (Potelligent) J6M0 The percentage of target cells remaining in the effector+target cell mixture after 18 hours was measured by FACS using a fluorescently labelled anti-CD138 antibody to detect the target cells and the percent lysis calculated. This is representative of several experiments.

[1] = test system: five multiple myeloma target cell lines; experiment: ADCC of afucosylated J6M0 on MM cell lines (panel); format: cell-based; conditions: human PBMC, E:T ratio 50:1, 18 hours
Experimental: as §1, §2

U266 = experiment: ADCC of afucosylated J6M0, U266; format: cell-based, human; conditions: PBMC E:T 50:1, 18 hours, one value per assay/donor (A-K)
Experimental: as §1, §2

[2] = test system: Europium labelled ARH77-10B5 cells; experiment: ADCC potency of conjugated, afucosylated J6M0; format: cell-based, human; conditions: PBMC: target cell ratio 50:1, up to 10000 ng/ml, 2 hours
Experimental: FIG. 17: ADCC activity of ADC J6M0 molecules—Figure showing ADCC assay on J6M0 antibodies using ARH77 BCMA expressing target cells. Human PBMC were incubated with europium labelled ARH77 BCMA transfected target cells in the presence of a range of concentrations of J6M0 WT and potelligent BCMA antibodies conjugated to MMAE, MMAF, or unconjugated Europium release was monitored on the Victor 2 1420 multilabel reader.
Afucosylated J6M0 conjugated to MMAE or MMAF was tested in ADCC assays using BCMA transfectants to ensure that its ADCC activity was not compromised by the conjugation. Europium labelled ARH77-10B5 cells were incubated with various J6M0 WT and Potelligent BCMA antibodies at concentrations up to 10000 ng/ml for 30 minutes prior to the addition of PBMCs (PBMC: target cell ratio 50:1). Two hours later an aliquot of cell media was sampled and mixed with enhancement solution. After 30 minutes on a plate shaker, europium release was monitored on the Victor 2 1420 multi-label reader. Datapoints represent means of triplicate values.

NCI-H929 tumours = experiment: NCI-H929 murine xenograft; format: in vivo, CB.17 SCID mice
Experimental: FIG. 19: Effect of dose escalation of J6M0 and drug conjugated J6M0 on the growth and establishment of NCI-H929 cells in CB.17 SCID mice. Calculated tumour volumes of NCI-H929 tumours in CB17 SCID mice following twice weekly intraperitoneal dosing of either 50 or 100 ug J6M0 anti-BCMA or IgG1 isotype control unconjugated, or conjugated to MMAE or MMAF for 2 weeks. Data points represent mean tumour volume of n=5 per group
The cell line selected for xenograft studies was NCI-H929 which is sensitive to ADC and ADCC killing in vitro. Studies were carried out in immunocompromised CB.17 SCID mice which lack T and B cells but maintain NK cells to allow for ADCC activity.
In order to independently analyze both the ADCC and ADC activities of J6M0 we tested J6M0 antibody in the presence and absence of MMAF or MMAE conjugation. By testing the unconjugated J6M0, any anti-tumour effects could be attributed to some combination of ADDC and functional inhibitory activity.
Mice with NCI-H929 tumours that had reached a volume of 200 mm^3 on average were treated with a human IgG1 control or the J6M0 antibody (unconjugated, MMAE or MMAF) twice weekly at a dose of 50 ug or 100 ug, for 2 weeks.

Human in house BCMA = molecular target: T1, Human in house BCMA (Homo sapiens, UniProt Q02223); experiment: ProteOn analysis of CA8 chimeric and humanised constructs, human in house BCMA; format: binding; conditions: Run 2, ProteOn, recombinant human BCMA; no affinity values obtained
T1 construct: CD33 signal peptide (N); TEV site (internal); Fc (C); made in house
Experimental: The initial screen of CA8 chimeric and humanised variants was carried out on the ProteOn XPR36 (Biorad). The method was as follows; Protein A was immobilised on a GLC chip (Biorad, Cat No: 176-5011) by primary amine coupling, CA8 variants were then captured on this surface and recombinant human BCMA (in house or commercial US Biological, B0410) materials (run 2 only)) passed over at 256, 64, 16, 4, 1 nM with a 0 nM injection (i.e. buffer alone) used to double reference the binding curves, the buffer used is the HBS-EP buffer. 50 mM NaOH was used to regenerate the capture surface. The data was fitted to the 1:1 model using the analysis software inherent to the ProteOn XPR36. Run 1 corresponds to the first screen of humanised CA8 variants (JO to J5 series) and run 2 to the second screen of humanised CA8 variants (J5 to J9 series). Both runs were carried out at 25° C.

[3] = molecular target: T2, ARH77-hBCMA 10B5 BCMA expressing transfectant cells (Homo sapiens, UniProt Q02223); experiment: FACS binding of humanised CA8 to BCMA transfected cells; conditions: varying concentrations, 20 minutes at RT
T2 construct: expressed in transfected cells; host or cells: ARH77 (clone 10B5)
T2 sequence (Q02223 1-184): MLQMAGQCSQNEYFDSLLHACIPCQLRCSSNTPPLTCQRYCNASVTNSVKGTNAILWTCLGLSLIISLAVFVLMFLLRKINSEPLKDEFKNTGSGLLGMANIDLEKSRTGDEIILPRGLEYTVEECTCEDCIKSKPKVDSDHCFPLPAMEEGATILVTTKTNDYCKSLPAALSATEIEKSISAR
Experimental: (§3) ARH77-hBCMA 10B5 BCMA expressing transfectant cells or H929 cells were stained with either chimeric CA8 or humanised variants of CA8 designated J6M0, J6M1, J6M2, J9M0, J9M1, J9M2 at varying concentrations for 20 minutes at RT. Cells were then washed with FACS buffer (PBS+0.5% BSA+0.1% sodium azide) to remove unbound antibody. Cells were incubated with a secondary PE labelled anti-human IgG antibody for 15 minutes at RT and then washed with FACS buffer to remove unbound antibody. Cells were analysed by FACS and mean fluorescence intensity (MFI) values measured to determine binding.

H929 cells = experiment: FACS binding of humanised CA8 to H929 cells; parameters: species or system human; conditions: varying concentrations, 20 minutes at RT
Experimental: as §3

Cyno in house BCMA = experiment: BIAcore analysis J7 to J9 series, cyno in house BCMA; format: binding; conditions: 37° C.
Human commercial BCMA = molecular target: T3, Human commercial BCMA (Homo sapiens, UniProt Q02223); experiment: BIAcore analysis J7 to J9 series, human commercial BCMA; format: binding; conditions: 37° C.
T3 construct: purchased US Biological B0410
T3 sequence (Q02223 1-184): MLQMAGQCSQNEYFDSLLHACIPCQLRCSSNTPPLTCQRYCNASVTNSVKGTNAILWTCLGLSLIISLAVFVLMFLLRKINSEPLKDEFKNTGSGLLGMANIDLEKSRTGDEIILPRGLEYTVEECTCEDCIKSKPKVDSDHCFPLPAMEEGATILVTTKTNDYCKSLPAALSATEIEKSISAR
Experimental: Protein A was immobilised on a CMS chip (GE Healthcare, Cat No: BR-1005-30) by primary amine coupling and this surface was then used to capture the antibody molecules. Recombinant human BCMA (US Biological, B0410) was used as analyte at 256 nM, 64 nM, 16 nM, 4 nM and 1 nM. Regeneration of the capture surface was carried out using 50 mM NaOH. All binding curves were double referenced with a buffer injection (i.e. 0 nM) and the data was fitted to the using the 1:1 model inherent to T100 evaluation software. The run was carried out at 37° C., using HBS-EP as the running buffer.

Chain of Cyno in house BCMA (as listed by the source): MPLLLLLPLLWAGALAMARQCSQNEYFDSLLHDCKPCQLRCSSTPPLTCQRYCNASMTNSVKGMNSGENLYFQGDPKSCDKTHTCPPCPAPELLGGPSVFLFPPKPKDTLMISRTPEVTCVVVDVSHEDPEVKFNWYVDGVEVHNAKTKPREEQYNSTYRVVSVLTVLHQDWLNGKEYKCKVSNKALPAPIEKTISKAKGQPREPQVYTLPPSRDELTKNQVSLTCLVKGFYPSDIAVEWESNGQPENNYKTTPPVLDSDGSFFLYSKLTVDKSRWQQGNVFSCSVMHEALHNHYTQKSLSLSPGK
T1 sequence (Q02223 with tags, fused parts or gaps limits assumed): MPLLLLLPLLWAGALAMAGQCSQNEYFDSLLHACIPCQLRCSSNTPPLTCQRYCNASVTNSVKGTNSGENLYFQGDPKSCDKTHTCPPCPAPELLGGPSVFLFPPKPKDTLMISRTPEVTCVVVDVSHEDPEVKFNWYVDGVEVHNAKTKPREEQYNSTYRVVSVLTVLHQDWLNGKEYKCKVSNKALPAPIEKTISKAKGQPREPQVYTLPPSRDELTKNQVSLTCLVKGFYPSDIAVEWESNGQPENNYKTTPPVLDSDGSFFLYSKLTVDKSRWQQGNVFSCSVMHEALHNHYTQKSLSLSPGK

Q: “J6M0 Potelligent: humanised CA8 version J6M0 in afucosylated (Potelligent) form” was tested. Which EC50 (OPM-2) did it give?
A: 4.15 ng/mL

Q: And the ADCC activity [1]?
A: showed ADCC activity against all five multiple myeloma target cell lines tested

Q: And the EC50 (U266)?
A: 9.04 ng/mL

Q: And the “ADCC potency (europium release)” value [2]?
A: lower EC50 and higher maximal lysis

Q: How did the “anti-tumour activity compared with unconjugated J6M0 and J6M0-MMAE” value (NCI-H929 tumours; 50 ug or 100 ug twice weekly for 2 weeks) turn out when J6M0-MMAF was run?
A: increased anti-tumour activity over both unconjugated J6M0 antibody and J6M0-MMAE conjugate

Q: And the “effect on NCI-H929 tumours” value (NCI-H929 tumours; 100 ug dose twice weekly for 2 weeks, intraperitoneal, tumours 200 mm^3 at start)?
A: elimination of tumours

Q: And the recurrence of tumour (NCI-H929 tumours; mice maintained for 40 days after the last dose)?
A: no recurrence of tumour

B1: CA8 humanised J9M2: humanised CA8 anti-BCMA antibody, VH J9 (SEQ ID NO:29) + VL M2 (SEQ ID NO:35) (antibody, V domains shown)
VH: QVQLVQSGAEVKKPGSSVKVSCKGSGYTFTNYWMHWVRQAPGQGLEWIGATYRGHSDTYYNQKFKGRATLTADTSTSTAYMELSSLRSEDTAVYYCTRGAIYDGYDVLDNWGQGTLVTVSS
VL: DIQLTQSPSSLSASVGDRVTITCSASQDISNYLNWYQQKPGKAPELVIYYTSNLHSGVPSRFSGSGSGTDYTLTISSLQPEDFATYYCQQYRKLPWTFGQGTKLEIKR
modifications: Humansed antibody sequence
Q: What does the source list for B1?
A: off rate (Human in house BCMA): beyond the sensitivity of the assay; dose dependent binding to ARH77-hBCMA 10B5 cells by FACS (MFI) [3]: all antibodies tested apart from J9M2 bound; dose dependent binding to H929 cells by FACS (MFI) (H929 cells): all antibodies tested apart from J9M2 bound; ka (Cyno in house BCMA; in M-1s-1 (unit assumed)): 4.88E+05; kd (Cyno in house BCMA; in s-1 (unit assumed)): 2.52E−04; KD (Human commercial BCMA): No
